Measured values: ChEMBL document CHEMBL2074022, “Penetration of endogenous steroid hormones corticosterone, cortisol, aldosterone and progesterone into the brain is enhanced in mice deficient for both mdr1a and mdr1b P-glycoproteins” (J Neuroendocrinol, 2002)

Tests used:
Details in all cases: in vivo
[1] = biological target: P-glycoprotein 1 and 3 (MDR1a/MDR1b) (Mus musculus, UniProt P21447+P06795); assay: (§1) TP_TRANSPORTER: increase in testes concentration in mdr1a/1b(-/-) mouse; type: functional, organism-based, Testis
[2] = biological target: T1, ATP-dependent translocase ABCB1 (Mus musculus, UniProt P21447); assay: as §1; type: functional, organism-based, Testis
[3] = biological target: T1, ATP-dependent translocase ABCB1; assay: TP_TRANSPORTER: increase in brain concentration in mdr1a/1b(-/-) mouse; type: functional, organism-based

T1 sequence (P21447 whole entry): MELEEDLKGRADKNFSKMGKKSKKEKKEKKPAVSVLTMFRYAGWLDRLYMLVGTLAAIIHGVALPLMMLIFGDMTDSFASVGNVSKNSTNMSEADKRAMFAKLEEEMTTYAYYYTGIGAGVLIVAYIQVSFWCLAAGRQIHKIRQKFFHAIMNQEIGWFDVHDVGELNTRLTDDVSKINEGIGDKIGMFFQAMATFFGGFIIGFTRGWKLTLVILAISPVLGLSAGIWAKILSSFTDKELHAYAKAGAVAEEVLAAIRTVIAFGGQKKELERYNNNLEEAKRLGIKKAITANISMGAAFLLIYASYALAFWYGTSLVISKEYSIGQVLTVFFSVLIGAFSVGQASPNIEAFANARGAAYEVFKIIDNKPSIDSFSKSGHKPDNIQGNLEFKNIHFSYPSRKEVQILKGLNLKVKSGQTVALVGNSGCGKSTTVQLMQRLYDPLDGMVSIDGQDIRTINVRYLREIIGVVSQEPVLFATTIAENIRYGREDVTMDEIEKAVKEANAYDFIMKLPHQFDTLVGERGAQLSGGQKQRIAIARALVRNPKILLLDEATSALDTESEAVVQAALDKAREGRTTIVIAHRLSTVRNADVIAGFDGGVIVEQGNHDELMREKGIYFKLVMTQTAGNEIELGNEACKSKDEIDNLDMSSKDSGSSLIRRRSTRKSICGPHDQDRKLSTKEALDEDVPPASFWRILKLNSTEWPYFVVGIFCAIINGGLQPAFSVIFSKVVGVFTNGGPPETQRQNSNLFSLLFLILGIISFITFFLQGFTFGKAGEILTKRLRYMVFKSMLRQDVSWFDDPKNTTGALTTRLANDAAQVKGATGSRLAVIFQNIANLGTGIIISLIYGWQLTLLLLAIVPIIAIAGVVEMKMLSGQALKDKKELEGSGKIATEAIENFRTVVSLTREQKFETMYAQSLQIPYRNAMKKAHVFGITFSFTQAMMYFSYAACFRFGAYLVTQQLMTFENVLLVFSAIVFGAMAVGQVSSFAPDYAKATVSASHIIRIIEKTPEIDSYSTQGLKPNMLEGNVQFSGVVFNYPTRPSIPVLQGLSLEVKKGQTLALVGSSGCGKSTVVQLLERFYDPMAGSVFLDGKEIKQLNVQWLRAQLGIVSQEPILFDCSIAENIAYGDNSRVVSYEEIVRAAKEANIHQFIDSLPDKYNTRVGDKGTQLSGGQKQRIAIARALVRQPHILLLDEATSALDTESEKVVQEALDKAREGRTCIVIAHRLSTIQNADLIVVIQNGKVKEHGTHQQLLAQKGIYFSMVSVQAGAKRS

Structure (SMILES)	Activity [1]	Activity [2]	Activity [3]
C[C@]12CCC(=O)C=C1CC[C@@H]1[C@@H]2[C@@H](O)C[C@]2(C=O)[C@@H](C(=O)CO)CC[C@@H]12 [ALDOSTERONE]	substrate [+]	–	–
C[C@]12CCC(=O)C=C1CC[C@@H]1[C@@H]2[C@@H](O)C[C@@]2(C)[C@H]1CC[C@]2(O)C(=O)CO [HYDROCORTISONE]	substrate [+]	–	–
CC(=O)[C@H]1CC[C@H]2[C@@H]3CCC4=CC(=O)CC[C@]4(C)[C@H]3CC[C@]12C [PROGESTERONE]	–	substrate [+]	substrate [+]
